Source: patent publication US20030139609A1, “Aziridinyl quinone antitumor agents based on indoles and cyclopent[b]indoles” (priority 2001, published 2003)
Several values for one entry are separate records, joined by “and”; a condition that tells them apart may be missing. Equal entries are not always repeated.

Key:
[1] = tested on: 600 bp calf thymus DNA; experiment: DNA reductive alkylation by catalytically reduced aziridinyl quinones; assay type: biochemical; details: for DNA alkylation percentage: catalytic reduction, anaerobic, pH 7.4 tris buffer, 30° C., 24 h, absorbance at 550 nm
Description: DNA Alkylation Screening of Series 1-9. The extent of DNA reductive alkylation was determined by catalytic reduction of the aziridinyl quinones in the presence of 600 bp calf thymus DNA. Oxidative workup afforded DNA colored blue as a result of the aminoquinone chromophore. […] The anaerobic conditions employed for DNA reductive alkylation assays is not meant to mimic the environment of tumor cells. These conditions do permit an accurate assessment of the structural requirements for DNA alkylation by the hydroquinone species. To be sure, agents incapable of akylating DNA under these ideal conditions will not do so in the typical cellular environment.
Alkylation of DNA by Reduced Indoloquinones. To a mixture of 1-2 mg of sonicated (600 bp) calf thymus DNA in 2.0 mL of 0.05 M of pH 7.4 tris buffer and 2 mg of Pd on carbon was added a five-to-one base pair equivalent amount of the indoloquinone dissolved in 0.5 mL of dimethylsulfoxide. The resulting solution was degassed under argon for 30 min., after which the mixture was purged with H2 for 10 min. The solution was then purged with argon for 10 min. and placed in a 30° C. bath for 24 h. The reaction was opened to the air and the catalyst was removed with a Millex-PF […] syringe filter. The filtrate was adjusted to 0.3 M acetate with a 3 M stock solution of pH 5.1 acetate and then diluted with two volumes of ethanol. The mixture was chilled at −20° C. for 12 h and the DNA pellet collected by centrifuging at 12,000 g for 20 min. The pellet was redissolved in water and then precipitated and centrifuged again. The resulting blue or red pellet was suspended in ethanol, centrifuged, and dried. The dried pellet was weighed and dissolved in 1 mL of double distilled water resulting in a clear colored solution with […]max˜550 nm, □˜750 M^−1 cm^−1. This is the chromophore of the aminoquinone resulting from nucleophile-mediated opening of the aziridine ring. Model 2′-chloroethyl aminoquinones for extinction coefficient determination were prepared by treatment of the indoloquinone with HCl. {Skibo, E. B. and Xing, C., Chemistry and DNA Alkylation Reactions of Aziridinyl Quinones: Development of an Efficient Alkylating Agent of the Phosphate Backbone, Biochemistry, 1998, 37, 15199-15213}.

[2] = tested on: NCI-H460 non-small-lung cancer cell line; experiment: NCI In Vitro Cell Line Screening, NSC H460 cell line; assay type: cell-based; details: for GI50 / CC50: Homo sapiens; for GI50: NCI-H460, concentration for 50% growth inhibition, read-out: Log GI50 NSC H460 (converted); for CC50: NCI-H460, read-out: Log LC50 NSC H460, concentration for 50% cell kill (converted); for Log TGI NSC H460: concentration for total growth inhibition; for Log GI50 NSC H460: concentration for 50% growth inhibition
Description: Cytotoxic and Cytostatic Screening of Series 1-9.

[3] = tested on: National Cancer Institute 60-cell line; experiment: NCI 60-cell line in vitro screen (average cytotoxicity and cancer specificity); details: for Average Log LC50 60-Cell Line: mean over 60 cell lines, ± value measures cancer specificity
Description: Cytotoxic and Cytostatic Screening of Series 1-9. […] The cytostatic parameters include GI50 and TGI, which are the concentrations of drug required for 50% growth inhibition and total growth inhibition, respectively. The cytotoxic parameter is the LC50, which is the concentration required for 50% cell kill.
4. […] Cancer specificity is measured from the ± value under the “Average Log LC50 60-Cell Line” heading of Table 5. A ± value greater than 2 indicates a greater than 100-fold higher/lower cytotoxicity in some histological cancer types compared to the mean cytotoxicity.
The DT-diaphorase levels in the National Cancer Institute 60-cell line in vitro screen have been determined and correlated with the cytotoxicity of antitumor agents activated by 2-electron reduction. {Fitzsimmons, S. A., Workman, P., Grever, M., Paull, K., Camalier, R., and Lewis, A. D., Reductase Enzyme Expression Across the National Cancer Institute Tumor Cell Line Panel: Correlation with Sensitivity To Mitomycin C and EO9, J. Natl. Cancer Inst., 1996, 88, 259-69}. Sensitive cancers usually include NSC lung and colon cancers (and to a lesser extent CNS, melanoma, and renal cancers) by virtue of their elevated DT-diaphorase levels.

[4] = tested on: B16 melanoma; experiment: animal or person; assay type: in vivo; details: for In vivo T/C (Treated/Control) / response vs control in vivo at 2 mg/kg: T/C at day 25, <40% active; for response vs control in vivo at 2 mg/kg: Mus musculus, B16, 600 h, read-out: In vivo T/C (Treated/Control)
Description: Shown in Tables 6 and 7 are B16 melanoma syngraft assays {Griswold, D. P., Consideration of the Subcutaneously Implanted B16 Melanoma as a Screening Model for Potential Anticancer Agents, Cancer Chemother Reports, 1972, 3, 315-324} of some members of Series 1-9, as well as related compounds previously reported from this laboratory. {Xing, C. G., Wu, P., Skibo, E. B., and Dorr, R. T., Design of cancer-specific antitumor agents based on aziridlinylcyclopent[b]indoloquinones, J. Med. Chem., 2000, 43, 457-466}. Each agent was evaluated at three doses in C57/bl mice: 2, 3 or 5 mg/kg/day, on days 1, 5, and 9 after subcutaneous tumor implantation of 10^5 cells in the front flank on day 0. “Toxic” means that there was early lethality, or ≧50% lethality prior to any deaths in the control group. The treated over control values (T/C) were measured at day 25 of the study. A T/C value <40% is considered active.
In vivo Evaluation. The B-16 melanoma in C57/bl mice syngraft model was employed to determine in vivo activity. {Griswold, D. P., Consideration of the Subcutaneously Implanted B16 Melanoma as a Screening Model for Potential Anticancer Agents, Cancer Chemother Reports, 1972, 3, 315-324}. Each agent was evaluated at three doses: 2, 3 or 5 mg/kg/day, on days 1, 5, and 9 after subcutaneous tumor implantation of 10^5 cells in the front flank on day 0. “Toxic” means that there was early lethality, or ≧50% lethality prior to any deaths in the control group. The treated over control values (T/C) were measured at day 25 of the study. A T/C value<40% is considered active. […] The control was obtained with drug-free animals.

| SMILES | melting point | DNA alkylation percentage [1] | GI50 [2] | CC50 [2] | Log TGI NSC H460 [2] | Average Log LC50 60-Cell Line [3] | In vivo T/C (Treated/Control) ([4]; 5 mg/Kg/Day on days 1, 5, 9) | other results |
| --- | --- | --- | --- | --- | --- | --- | --- | --- |
| CC(=O)OC1CCc2c1[nH]c1c2C(=O)C(N2CC2)=CC1=O (stereo not drawn) [Compound 1b, 3-Acetoxy-7-aziridinyl-1,2,3,4-tetrahydrocyclopent[b]indole-5,8-dione] | 165 °C | 34% | – | – | – | – | – | – |
| CC(=O)OC1CCc2c3c(n(C(C)=O)c21)C(=O)C=C(N1CC1)C3=O (stereo not drawn) [Compound 1c, 7-Aziridinyl-3-acetoxy-4-acetyl-1,2,3,4-tetrahydrocyclopent[b]indole-5,8-dione] | 140 °C | – | – | – | – | – | – | – |
| CC(=O)OC1CCc2c1[nH]c1c2C(=O)C(N2CC2)=C(C)C1=O (stereo not drawn) [Compound 2b, 3-Acetoxy-7-aziridinyl-6-methyl-1,2,3,4-tetrahydrocyclopent[b]indole-5,8-dione] | 165 °C | 21% | – | – | – | – | – | – |
| CC(=O)OC1CCc2c3c(n(C(C)=O)c21)C(=O)C(C)=C(N1CC1)C3=O (stereo not drawn) [Compound 2c, 7-Aziridinyl-3-acetoxy-4-acetyl-6-methyl-1,2,3,4-tetrahydrocyclopent[b]indole-5,8-dione] | 156 °C | – | – | – | – | – | – | – |
| O=C1C(N2CC2)=CC(=O)c2c1[nH]c1c2CCC1O (stereo not drawn) [Compound 3a, 6-Aziridinyl-3-hydroxy-1,2,3,4-tetrahydrocyclopent[b]indole-5,8-dione] | – | 30% | 7.24 nM | 1780 nM | −7.24 | −5.59 ± 1.95 | – | cytostatic/cytotoxic activity versus histological cancer type (in words) [3]: significant cytostatic/cytotoxic activity |
| CC(=O)OC1CCc2c1[nH]c1c2C(=O)C(C)=C(N2CC2)C1=O (stereo not drawn) [Compound 4b] | – | 44% | 112 nM | 1230 nM | −6.17 | −4.67 ± 1.04 | – | ± value of Average Log LC50 60-Cell Line [3]: ~1 |
| CC(=O)OC1CCc2c3c(n(C(C)=O)c21)C(=O)C(N1CC1)=C(C)C3=O (stereo not drawn) [Compound 4c] | – | 9% | – | – | – | −4.60 ± 1.12 and −4.49 ± 1.31 | 15% | In vivo T/C (Treated/Control) ([4]; 2 mg/Kg/Day on days 1, 5, 9): 37%; In vivo T/C (Treated/Control) ([4]; 3 mg/Kg/Day on days 1, 5, 9): 15%; in vivo antitumor activity (in words) ([4]; 2, 3 or 5 mg/kg/day): active at all doses; in vivo toxicity (in words) ([4]; 2, 3 or 5 mg/kg/day): without any toxicity |
| CC1=C(N2CC2)C(=O)c2c(c3c(n2C)C(O)CC3)C1=O (stereo not drawn) [Compound 5a, 6-Aziridinyl-4,7-dimethyl-3-Hydroxy-1,2,3,4-tetrahydrocyclopent[b]indole-5,8-dione] | – | 0.3% | 1260 nM | 50100 nM | −5.12 | – | – | cytostatic and cytotoxic activity (−log) [2]: 5-6; cytostatic/cytotoxic activity versus histological cancer type (in words) [3]: inactive against all histological cancer types; CC50 ([3]; Homo sapiens, 60 cell, read-out: Average Log LC50 60-Cell Line (converted)): ≥ 100000 nM |
| CC(=O)OC1CCc2c3c(n(C)c21)C(=O)C(N1CC1)=C(C)C3=O (stereo not drawn) [Compound 5b] | 157 °C | – | – | – | – | – | – | – |
| Cn1c(CO)c(CO)c2c1C(=O)C=C(N1CC1)C2=O [Compound 6b, 5-Aziridinyl-2,3-di(hydroxymethyl)-1-methylindole-4,7-dione] | – | 3.8% | 10 nM | – | −8 | −5.35 ± 2.65 and −5.50 ± 2.5 | Toxic (“Toxic” means ≧ 50% lethality before any control growth deaths) | In vivo T/C (Treated/Control) ([4]; 2 mg/Kg/Day on days 1, 5, 9): Toxic (“Toxic” means ≧ 50% lethality before any control growth deaths); In vivo T/C (Treated/Control) ([4]; 3 mg/Kg/Day on days 1, 5, 9): Toxic (“Toxic” means ≧ 50% lethality before any control growth deaths) |
| CC1=C(N2CC2)C(=O)c2c([nH]c(CO)c2CO)C1=O [Compound 7a, 5-Aziridinyl-2,3-di(hydroxymethyl)-6-methylindole-4,7-dione] | – | 2% | 10 nM | 1170 nM | −7.49 | −5.54 ± 1.89 | Toxic (“Toxic” means ≧ 50% lethality before any control growth deaths) | In vivo T/C (Treated/Control) ([4]; 3 mg/Kg/Day on days 1, 5, 9): Toxic (“Toxic” means ≧ 50% lethality before any control growth deaths); response vs control in vivo at 2 mg/kg ([4]; 2 mg/Kg/Day on days 1, 5, 9): 36%; cytostatic/cytotoxic activity versus histological cancer type (in words) [3]: significant cytotoxic and cytostatic properties |
| CC1=C(N2CC2)C(=O)c2c(CO)c(CO)n(C)c2C1=O [Compound 7c, 5-Aziridinyl-2,3-di(hydroxymethyl)-1,6-dimethylindole-4,7-dione] | 165 °C | 0% | – | – | – | – | – | DNA alkylation (in words) [1]: complete loss of DNA alkylation |
| CC(=O)OCc1[nH]c2c(c1COC(C)=O)C(=O)C(C)=C(N1CC1)C2=O [Compound 8b, 6-Aziridinyl-2,3-di(acetoxymethyl)-5-methylindole-4,7-dione] | – | 37% | 35.5 nM | – | −6.75 and −6.71 | −4.52 ± 1.7 and −4.61 ± 2.5 | Toxic (“Toxic” means ≧ 50% lethality before any control growth deaths) | Log GI50 NSC H460 [2]: −7.63; In vivo T/C (Treated/Control) ([4]; 3 mg/Kg/Day on days 1, 5, 9): Toxic (“Toxic” means ≧ 50% lethality before any control growth deaths); response vs control in vivo at 2 mg/kg ([4]; 2 mg/Kg/Day on days 1, 5, 9): 74%; DNA alkylation (in words) [1]: high DNA alkylation percentages |
| CC1=C(N2CC2)C(=O)c2c(c(CO)c(CO)n2C)C1=O [Compound 8c, 6-Aziridinyl-2,3-di(hydroxymethyl)-1,5-dimethylindol-4,7-dione] | – | 0% | 38.9 nM | 955 nM | −6.66 | −4.61 ± 1.64 and −4.67 ± 2.48 | Toxic (“Toxic” means ≧ 50% lethality before any control growth deaths) | Log GI50 NSC H460 [2]: −7.27; Log LC50 NSC H460 ([2]; human): −6.21; DNA alkylation (in words) [1]: complete loss of DNA alkylation |
| O=C1C(N2CC2)=CC(=O)c2c1[nH]c(CO)c2CO [Compound 9a, 6-Aziridinyl-2,3-di(hydroxymethyl)indole-4,7-dione] | – | 3.4% | 138 nM | 11700 nM | −5.94 | −5.07 ± 1.43 | – | – |
